The results in this text go back to article PMC3486420, “In Vitro and In Vivo Characterizations of Chiglitazar, a Newly Identified PPAR Pan-Agonist” (PPAR Research, 2012).

For orientation: EC50 means the midpoint of the concentration-response curve.

Molecules are shown by their SMILES.

One test concerns KKAy mice. Briefly: Gene expression by RT-PCR in tissues of treated KKAy mice. The class given is in vivo, mouse. As to conditions: 12 days oral. The protocol:
Total RNA was extracted from cells or tissues with an RNeasy minikit (Qiagen, Valencia, CA, USA). The first-strand cDNA was synthesized using the oligo(dT) primers, followed by using SuperScript II reverse transcriptase (Invitrogen) according to the manufacturer's instructions. The PCR amplifications were performed in 10 μL of reaction mixture volume containing 0.8 μL of cDNA, 10 mM Tris-HCl (pH 8.3), 50 mM KCl, 1.5 mM MgCl2, 0.1% Triton X-100, 0.2 mM deoxynucleotide triphosphates, 0.4 μM primers, and 0.25 U of Taq polymerase (TaKaRa Biotechnology Co., Ltd, China). Taq DNA polymerase was added to each tube after a treatment of 2 min at 94°C. This was followed by 22–30 cycles of denaturation (23 s at 94°C), annealing (20 s at 55°C), extension (30 s at 72°C), and a final extension step of 2 min. PCR products were analyzed by electrophoresis on a 1.5% agarose gel stained with ethidium bromide.
Male db/db mice (BKS.Cg-m +/+ LEPR^db) in 6-7 weeks were purchased from The Jackson Laboratory (Bar Harbor, ME, USA). Male KKAy and C57BL/6J mice in 8–10 weeks were obtained from the Institute of Animal Science, Chinese Academy of Medical Sciences and Peking Union Medical College (Beijing, China). Animals were randomly sorted into different treatment groups (8–10 per group). […]. Plasma glucose levels were examined at various time points by Accu-Chek Advantage II Glucose Strips (Roche Diagnostics, Basel, Switzerland) and measured by Accu-Chek Advantage (Roche Diagnostics). Animals were sacrificed 24 h after the last dosing and abdominal fat pad, liver, and skeletal muscle from KKAy mice and abdominal fat pad from db/db mice were taken for gene expression analysis.
Figure 3 In vivo regulation of gene expression by chiglitazar. […]. Equal amount of total RNA from each mouse in the same group was mixed and subjected to RT-PCR analysis for the indicated genes. […]. Total RNA was isolated from individual animal tissues and subjected to the RT-PCR analysis independently for the indicated genes.

The target in test [1] is T1, PPARγ (Homo sapiens, UniProt P37231).
T1 construct: expressed in transfected cells; host or cells: SMMC-7721 or U2OS
T1 sequence (P37231 1-505): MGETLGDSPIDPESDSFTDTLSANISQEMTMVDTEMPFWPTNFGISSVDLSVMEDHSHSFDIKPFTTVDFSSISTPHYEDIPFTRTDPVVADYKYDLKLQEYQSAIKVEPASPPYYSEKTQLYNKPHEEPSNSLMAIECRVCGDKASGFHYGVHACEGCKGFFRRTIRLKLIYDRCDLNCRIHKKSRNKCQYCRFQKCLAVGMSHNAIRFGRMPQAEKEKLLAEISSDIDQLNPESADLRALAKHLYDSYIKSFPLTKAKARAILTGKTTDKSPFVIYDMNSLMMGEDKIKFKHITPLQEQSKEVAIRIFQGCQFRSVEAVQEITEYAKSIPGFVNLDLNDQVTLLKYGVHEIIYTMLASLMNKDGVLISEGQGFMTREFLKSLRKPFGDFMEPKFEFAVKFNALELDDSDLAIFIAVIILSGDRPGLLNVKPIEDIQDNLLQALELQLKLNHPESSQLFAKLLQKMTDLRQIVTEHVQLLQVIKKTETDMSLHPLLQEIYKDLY
T1 sequence (P19793 1-462 partner): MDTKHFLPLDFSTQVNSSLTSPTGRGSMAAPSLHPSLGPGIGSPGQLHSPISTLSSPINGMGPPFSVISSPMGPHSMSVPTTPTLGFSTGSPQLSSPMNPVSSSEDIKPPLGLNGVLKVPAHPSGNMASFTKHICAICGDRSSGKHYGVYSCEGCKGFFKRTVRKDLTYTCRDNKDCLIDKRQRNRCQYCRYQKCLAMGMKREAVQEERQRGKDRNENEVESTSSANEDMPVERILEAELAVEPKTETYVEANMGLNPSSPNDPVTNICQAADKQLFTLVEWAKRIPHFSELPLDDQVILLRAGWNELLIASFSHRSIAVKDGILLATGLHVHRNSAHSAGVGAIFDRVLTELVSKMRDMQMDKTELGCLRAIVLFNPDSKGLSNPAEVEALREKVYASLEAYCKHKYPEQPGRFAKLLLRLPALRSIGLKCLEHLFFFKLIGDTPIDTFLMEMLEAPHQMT
Briefly: PPARγ transactivation reporter gene assay in U2OS cells. The class given is cell-based. Background: A reporter such as luciferase makes a cellular process visible.

For a further test, the target named is T2, PPARδ (Homo sapiens, UniProt Q03181).
T2 construct: expressed in transfected cells; host or cells: SMMC-7721 or U2OS
T2 sequence (Q03181 1-441): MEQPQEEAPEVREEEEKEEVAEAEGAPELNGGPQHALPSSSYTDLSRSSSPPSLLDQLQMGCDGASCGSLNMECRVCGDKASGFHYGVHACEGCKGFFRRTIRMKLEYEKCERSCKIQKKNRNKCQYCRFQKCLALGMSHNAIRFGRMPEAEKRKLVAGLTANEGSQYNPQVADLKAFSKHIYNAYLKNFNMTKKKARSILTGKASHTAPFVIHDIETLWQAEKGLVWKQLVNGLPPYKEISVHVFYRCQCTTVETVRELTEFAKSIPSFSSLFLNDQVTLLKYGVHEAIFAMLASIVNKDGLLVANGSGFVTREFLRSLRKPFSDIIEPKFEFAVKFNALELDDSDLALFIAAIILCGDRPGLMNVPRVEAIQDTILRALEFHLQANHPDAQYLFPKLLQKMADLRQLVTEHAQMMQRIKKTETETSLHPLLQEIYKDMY
T2 sequence (P19793 1-462 partner): T1 sequence (P19793 1-462 partner)
Nature of the test: PPARδ transactivation reporter gene assay in U2OS cells. The class given is cell-based. As to conditions: U2OS cells.

For test [2], the target named is T1, PPARγ. Nature of the test: PPARγ transactivation reporter gene assay in SMMC-7721 cells. In kind it is cell-based. As to conditions: SMMC-7721 cells.
[3] abbreviates: chiglitazar 20 mg kg^−1, rosiglitazone 5 mg kg^−1.
Setting [4] is: max response compared with Ros at 1 μM.

Consider `O=C(c1ccc(F)cc1)c1ccccc1NC(Cc1ccc(OCCn2c3ccccc3c3ccccc32)cc1)C(=O)O` (stereo not shown) [Chi, 2-[(2-(4-fluorobenzoyl)phenyl)amino]-3-[4-(2-carbazolylethoxy)-phenyl]-propionic acid], for which the “Expression of ACADL, HSL, GLUT4 and PPARγ in liver and skeletal muscle” value in the test with KKAy mice (setting [3]) is reported as “not affected”. In the test with KKAy mice (setting [3]), the “Expression of genes involved in PPARγ-mediated insulin sensitization in adipose tissue” value is listed as “almost identically up-regulated”. In addition, the “Expression of PPARα and VLCS in adipose tissue” value in the test with KKAy mice (chiglitazar 20 mg kg^−1 compared with rosiglitazone 5 mg kg^−1) is on record as “greater degree of upregulation”. Also, the “Expression of leptin and SREBP1 in liver and skeletal muscle” value in the test on KKAy mice (chiglitazar 20 mg kg^−1 vs rosiglitazone 5 mg kg^−1) is on record as “more upregulated”. Besides, the half-maximal effective concentration (EC50) on PPARγ [1] (24 h treatment, luciferase reporter, hRXR cotransfected, ia: inactive at 10 μM) amounted to 80 ± 20 nM; at PPARδ (24 h treatment, luciferase reporter, hRXR cotransfected, ia: inactive at 10 μM, read-out: PPARδ EC50) it was 1500 ± 200 nM; on PPARγ [2] (24 h treatment, luciferase reporter, hRXR cotransfected, ia: inactive at 10 μM, read-out: PPARγ EC50), 90 ± 20 nM. Besides, the “PPARγ % Max” value at PPARγ [1] (setting [4]) is 117%; on PPARγ [2] (setting [4]), 105%. In addition, the “PPARδ % Max” value at PPARδ (max response compared with 2-Bro at 10 μM) is on record as 244%.
